Experimental data reported in US8759579B2, “Cyclobutyl sulfones as notch sparing gamma secretase inhibitors” (Merck Sharp & Dohme Corp., priority 2008, dated 2014).
Like-named read-outs stand apart in the source and are kept apart here.

Tests used:
Type in all cases: cell-based
[1] = tested on: Aβ40 peptides generated from SH-SY5Y cells expressing amyloid β protein (SP4CT cells); assay: APP processing AlphaLisa assay, secreted Aβ40; settings: average of at least >4 replicates, read-out: AB40 IC50 AVG
Description: (§1) APP Processing (Assay Quantitates Secreted Aβ Analytes from Cell Lines):
(§2) The effect of compounds on the abundance of Aβ40 and Aβ42 peptides generated from SH-SY5Y cells expressing amyloid β protein (SP4CT cells) was determined by an AlphaLisa™ assay. Analogous to an ELISA assay, generation of signal in this AlphaLisa™ assay requires “donor” and “acceptor” beads to be brought in close proximity by specific antibody recognition of either Aβ40 or Aβ42 peptides. The assay was accomplished by removing media from compound-treated SP4CT cells to two different microplates, followed by the addition of donor beads conjugated with streptavidin binding a biotinylated anti-amyloid β monoclonal antibody (clone 4G8). Acceptor beads directly conjugated with anti-Aβ40 monoclonal antibody (G210) were added to one microplate and anti-Aβ42 monoclonal antibody (12F4) acceptor beads were added to the other. Abundance of Aβ40 and Aβ42 was directly proportional to the luminescent signal generated following excitation of donor beads by laser light.

[2] = tested on: gamma secretase-dependent cleavage of the Notch protein (NotchΔE) in HeLa cells; assay: Notch processing split-luciferase assay (Notch intracellular domain release)
Description: Notch Processing: (Assay Quantitates Notch Intracellular Domain Release in Cell Lines):
A “split-luciferase” assay is used to measure inhibition of gamma secretase-dependent cleavage of the Notch protein. In this assay, HeLa cells were made to express a Notch protein lacking its extracellular domain (NotchΔE) fused to an N-terminal fragment of luciferase. The same cells also expressed a C-terminal fragment of luciferase fused to the immunoglobulin J kappa recombination signal sequence binding protein (RBP). Upon NotchΔE cleavage by gamma secretase, a Notch intracellular domain (NICD)-N terminal luciferase protein is generated which translocates to the nucleus and binds the RBP-C terminal luciferase fusion, bringing two independently nonfunctional halves of luciferase together to form a functional luciferase enzyme. The activity of luciferase in these cells is directly proportional to the amount of gamma secretase-cleaved Notch. Luciferase activity is determined by the standard techniques of luciferin addition to lysed cells and measurement of total luminescence.

[3] = tested on: Aβ42 peptides generated from SH-SY5Y cells expressing amyloid β protein (SP4CT cells); assay: APP processing AlphaLisa assay, secreted Aβ42; settings: average of at least >4 replicates, read-out: AB42 IC50 AVG
Description: as §1, §2

[4] = biological target: T1, pregnane X receptor (PXR) (Homo sapiens, UniProt O75469); assay: PXR assay (CYP3A4-SEAP transactivation assay, PCSTA); settings: for EC50: HEP G2 cells
T1 construct: expressed in transfected cells; host or cells: HEP G2
T1 sequence (O75469 1-434): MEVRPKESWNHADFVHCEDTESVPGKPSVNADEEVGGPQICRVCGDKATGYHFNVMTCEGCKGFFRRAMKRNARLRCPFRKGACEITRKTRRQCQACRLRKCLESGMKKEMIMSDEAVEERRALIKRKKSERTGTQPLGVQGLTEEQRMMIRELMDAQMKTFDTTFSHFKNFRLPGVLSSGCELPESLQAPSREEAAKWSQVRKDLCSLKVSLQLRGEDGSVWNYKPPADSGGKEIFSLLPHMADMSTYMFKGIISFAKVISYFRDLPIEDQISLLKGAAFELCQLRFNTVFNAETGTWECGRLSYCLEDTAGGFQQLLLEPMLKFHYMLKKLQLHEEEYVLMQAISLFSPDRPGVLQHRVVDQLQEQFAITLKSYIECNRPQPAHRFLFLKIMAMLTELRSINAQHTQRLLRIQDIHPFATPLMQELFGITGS
T1 sequence (P19793 1-462 partner): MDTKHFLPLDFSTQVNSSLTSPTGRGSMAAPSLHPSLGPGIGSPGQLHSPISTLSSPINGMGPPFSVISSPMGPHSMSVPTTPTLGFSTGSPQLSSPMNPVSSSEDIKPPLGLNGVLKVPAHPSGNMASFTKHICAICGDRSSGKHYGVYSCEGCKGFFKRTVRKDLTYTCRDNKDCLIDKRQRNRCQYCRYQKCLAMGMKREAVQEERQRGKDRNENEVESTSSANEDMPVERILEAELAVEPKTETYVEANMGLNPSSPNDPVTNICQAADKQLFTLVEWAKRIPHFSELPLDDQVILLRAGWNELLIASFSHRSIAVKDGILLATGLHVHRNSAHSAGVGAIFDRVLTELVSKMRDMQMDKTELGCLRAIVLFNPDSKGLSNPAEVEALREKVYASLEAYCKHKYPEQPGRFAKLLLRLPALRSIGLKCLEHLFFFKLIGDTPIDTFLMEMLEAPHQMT
Description: The CYP3A4-SEAP transactivation assay (PCSTA) effectively and rapidly evaluates compounds for their potential to induce cytochrome P450 CYP3A (human CYP3A4 or rat CYP3A1). The reporter construct contains regulatory regions from the CYP3A4 gene positioned just upstream of a secreted alkaline phosphatase (SEAP) gene. The human PXR nuclear receptor has been modified at the 5′-end so that methionine is the initiating amino acid replacing leucine found in the wild-type sequence. HEP G2 cells are transfected with the PXR plasmid (human or rat) and the reporter plasmid. Read-out for the induction of CYP3A4 consists of a SEAP calorimetric assay with para-nitro-phenyl phosphate (pNPP) as the substrate. Five point dose-response curves in duplicate are then generated with each point corresponding to the rate of conversion of pNPP to pNP by SEAP. For the human PCSTA, rifampicin is used as the positive control and 100% induction is based upon the maximum induction produced by rifampicin at 10 μM.

[5] = Homo sapiens, HeLa, average of at least >4 replicates, read-out: Notch IC50 AVG
[6] = read-out: Notch IC50 AVG, average of at least >4 replicates

IC50 ([1]; Homo sapiens, SH-SY5Y) [nM]	IC50 [2, 5] [nM]	IC50 ([3]; Homo sapiens, SH-SY5Y) [nM]	EC50 [4] [nM]	PXR % Activation @ 10 uM [4] [%]	IC50 ([2]; average of at least >4 replicates, read-out: Notch IC50 AVG) [nM]	SMILES	IC50 [1] [nM]	IC50 [3] [nM]	IC50 [2, 6] [nM]
51.8	2830	51.8	1210	–	–	COC(=O)CCCN([C@H]1C[C@@](c2cc(F)ccc2F)(S(=O)(=O)c2ccc(Cl)cc2)C1)S(=O)(=O)C(F)(F)F [Example 15, methyl 4-{[cis-3-[(4-chlorophcnyl)sulfonyl]-3-(2,5-difluorophenyl)cyclobutyl][(trifluoromethyl)sulfonyl]amino}butanoate]	–	–	–
62.6	5680	48.7	1250	89.1	–	O=S(=O)(N([C@H]1C[C@@](c2cc(F)ccc2F)(S(=O)(=O)c2ccc(Cl)cc2)C1)S(=O)(=O)C(F)(F)F)C(F)(F)F [Example 19, N-[cis-3-[(4-chlorophenyl)sulfonyl]-3-(2,5-difluorophenyl)cyclobutyl]-1,1,1-trifluoro-N-[(trifluoromethyl)sulfonyl]methanesulfonamide]	–	–	–
70.1	3210	66.1	714	92.3	–	N#Cc1ccc(F)cc1[C@]1(S(=O)(=O)c2ccc(Cl)cc2)C[C@@H](NS(=O)(=O)C(F)(F)F)C1 [Example 3, N-[cis-3-[(4-chlorophenyl)sulfonyl]-3-(2-cyano-5-fluorophenyl)cyclobutyl]-1,1,1-trifluoromethanesulfonamide]	–	–	–
70.8	1940	78.2	1960	70.7	–	O=S(=O)(N[C@H]1C[C@@](c2cc(Cl)ccc2Cl)(S(=O)(=O)c2ccc(Cl)cc2)C1)C(F)(F)F [Example 4, N-[cis-3-[(4-chlorophenyl)sulfonyl]-3-(2,5-dichlorophenyl)cyclobutyl]-1,1,1-trifluoromethanesulfonamide]	–	–	–
60.8	4470	65.4	3090	75.5	–	CC1(NS(=O)(=O)C(F)(F)F)CC(c2cc(F)ccc2F)(S(=O)(=O)c2ccc(C(F)(F)F)cc2)C1 (stereo not drawn) [Example 18, N-(cis-3-(2,5-difluorophenyl)-1-methyl-3-{[4-(trifluoromethyl)phenyl]sulfonyl}cyclobutyl)-1,1,1-trifluoromethanesulfonamide]	–	–	–
130	5640	106	1990	79.2	–	O=S(=O)(NC1CC(c2cc(Cl)ccc2F)(S(=O)(=O)c2ccc(Cl)cc2)C1)C(F)(F)F (stereo not drawn) [Example 6, N-{cis-3-(5-chloro-2-fluorophenyl)-3-[(4-chlorophenyl)sulfonyl]cyclobutyl}-1,1,1-trifluoromethanesulfonamide]	–	–	–
97.7	13200	117	1600	–	–	COC(=O)CN([C@H]1C[C@@](c2cc(F)ccc2F)(S(=O)(=O)c2ccc(Cl)cc2)C1)S(=O)(=O)C(F)(F)F [Example 12, Methyl {[cis-3-[(4-chlorophenyl)sulfonyl]-3-(2,5-difluorophenyl)cyclobutyl][(trifluoromethyl)sulfonyl]amino}acetate]	–	–	–
100	3810	90.2	5200	64.4	–	O=S(=O)(NC1CC(c2cc(F)ccc2F)(S(=O)(=O)c2ccc(C(F)(F)F)cc2)C1)C(F)(F)F (stereo not drawn) [Example 5, N-(cis-3-(2,5-difluorophenyl)-3-{[4-(trifluoromethyl)phenyl]sulfonyl}cyclobutyl)-1,1,1-trifluoromethanesulfonamide]	–	–	–
79.2	3140	62.8	1260	82.3	–	O=S(=O)(NC1CC(c2cc(F)ccc2F)(S(=O)(=O)c2ccc(F)c(F)c2)C1)C(F)(F)F (stereo not drawn) [Example 8, N-{cis-3-(2,5-difluorophenyl)-3-[(3,4-difluorophenyl)sulfonyl]cyclobutyl}-1,1,1-trifluoromethanesulfonamide]	–	–	–
–	–	–	1260	–	4810	CN(C1CC(c2cc(F)ccc2F)(S(=O)(=O)c2ccc(Cl)cc2)C1)S(=O)(=O)C(F)(F)F (stereo not drawn) [Example 13, N-[3-[(4-chlorophenyl)sulfonyl]-3-(2,5-difluorophenyl)cyclobutyl]-1,1,1-trifluoro-N-methylmethanesulfonamide]	18.4	18.9	–
151	50000	117	1220	–	–	O=S(=O)(N[C@H]1C[C@](c2cc(F)ccc2F)(S(=O)(=O)c2ccc(Cl)cc2)C1)C(F)(F)F [Example 1, N-[trans-3-[(4-chlorophenyl)sulfonyl]-3-(2,5-difluorophenyl)cyclobutyl]-1,1,1-trifluoromethanesulfonamide]	–	–	–
68.4	3080	57.6	766	113.2	–	O=S(=O)(NC1CC(c2cc(F)ccc2F)(S(=O)(=O)c2ccc(F)cc2)C1)C(F)(F)F (stereo not drawn) [Example 7, N-{cis-3-(2,5-difluorophenyl)-3-[(4-fluorophenyl)sulfonyl]cyclobutyl}-1,1,1-trifluoromethanesulfonamide]	–	–	–

SMILES	IC50 ([1]; Homo sapiens, SH-SY5Y) [nM]	IC50 [2, 5] [nM]	IC50 ([3]; Homo sapiens, SH-SY5Y) [nM]	EC50 [4] [nM]	PXR % Activation @ 10 uM [4] [%]	IC50 ([2]; average of at least >4 replicates, read-out: Notch IC50 AVG) [nM]	IC50 [1] [nM]	IC50 [3] [nM]	IC50 [2, 6] [nM]
O=S(=O)([N-][C@H]1C[C@@](c2cc(F)ccc2F)(S(=O)(=O)c2ccc(Cl)cc2)C1)C(F)(F)F.[Na+] [Example 20, Sodium [cis-3-[(4-chlorophenyl)sulfonyl]-3-(2,5-difluorophenyl)cyclobutyl][(trifluoromethyl)sulfonyl]azanide]	–	–	–	2890	71.9	–	61.2	53.2	1770
O=S(=O)([N-][C@H]1C[C@@](c2cc(F)ccc2F)(S(=O)(=O)c2ccc(Cl)cc2)C1)C(F)(F)F.[K+] [Example 21, Potassium [cis-3-[(4-chlorophenyl)sulfonyl]-3-(2,5-difluorophenyl)cyclobutyl][(trifluoromethyl)sulfonyl]azanide]	–	–	–	3380	64.4	–	64.9	70.9	2130
